Laboratory results from patent US20080090728A1, “Method for Improving Plant Growth” (BAYER CROPSCIENCE AG, priority 2004, published 2008).

Assays:
[1] = tested on: Eucalyptus seedlings (E. globulus); assay: Field trial, height of treated Eucalyptus seedlings (growth effect); format: in vivo; settings: for Average height (cm): E. globulus seedlings
From the text: (§1) A synergistic effect is always present when the growth effect of the combinations according to the invention exceed the total of the activities of the active compounds when applied individually. The expected activity for a given combination of two active compounds can be calculated as follows (cf. Colby, S.R., “Calculating Synergistic and Antagonistic Responses of Herbicide Combinations”, Weeds 15, (1967), 20-22): If • X is the growth effect when applying one compound selected from the class of agonists and antagonists of the nicotinic acetylcholine receptors at an application rate of m g/ha, • Y is the growth effect when applying fertilizer at an application rate of n g/ha and • E is the efficacy when applying the combination of A and B at an application rate of m and n g/ha, then [formula] The efficacy is calculated in %. 0% is an efficacy which corresponds to that of the control. If the actual growth effect exceeds the calculated value, then the activity of the combination is super additive, i.e. a synergistic effect exists. In this case, the efficacy which was actually observed must be greater than the value for the expected efficacy (E) calculated from the abovementioned formula. The trial was established using a Latin square design (4 treatments with 4 replications each) with 49 ligneous trees per plot for a total of 784 trees in the trial. Trees: Eucalyptus seedlings (E. globulus) The four treatments used were 1) control (nil treatment) 2) fertilizer only 3) insecticide (i.e. imidacloprid) only 4) insecticide (i.e. imidacloprid) plus fertilizer Bonitation of insect infestation and measurement of the height of the treated trees was done 7 months and 12 months after the trial has been started (start of trial: August 2003, bonitations: March 2004 and August 2004) All results are statistically evaluated having a significance level of 5% . Besides the mean value comparison the Fisher's PLSD test has been applied.

insect infestation = assay: Field trial, bonitation of insect infestation (defoliation by insect damage) on Eucalyptus seedlings; format: in vivo
From the text: as §1

[2] = Bonitation August 2004, 12 months after start of trial
[3] = Bonitation March 2004, 7 months after start of trial

## O=[N+]([O-])NC1=NCCN1Cc1ccc(Cl)nc1 [imidacloprid only, Imidacloprid]
[1]; [2]
  Height of tree (% of control): 104 % of control
  Average height (cm): 125 cm
[1]; [3]
  Height of tree (% of control): 115 % of control
  Average height (cm): 86 cm
Insect infestation; [2]
  Average defoliation by insect damage (%): 60%
  Efficacy according to Abbott (%): 40%
Insect infestation; [3]
  Average defoliation by insect damage (%): 18%
  Efficacy according to Abbott (%): 71%
